Data as given in patent US9115166B2, “Rebaudioside A derivative products and methods for making” (The Coca-Cola Company, priority 2008, dated 2015).
Marks after values point to notes of the source that are not given here.

Key:
[1] = Sweetness potency of derivative products compared to sucrose at iso-sweetness levels (Example 1); conditions: in vivo
Source text: These rebaudioside A derivative products were characterized as having an intense sweetening potency. […] Thus, the rebaudioside A derivative products are suitable for use as sweeteners for sweetenable compositions.

[2] = Quality of sweetness: sensory attributes scored on a 15-point unstructured line scale; assay type: in vivo; design: key to Stale Flavor / Metallic Flavor / Mouth Numbing / Mouthburn / Stale Aftertaste / Metallic Aftertaste / Overall Aroma / Sweet Aromatic Aroma / Stale Aroma: scores on a 15-point unstructured line scale; conditions: for characteristics which were not significantly different from sucrose (number): Fisher's LSD 5%, 95% confidence level; for Metallic Aftertaste / Metallic Flavor / Mouth Numbing / Mouthburn / Stale Flavor / Overall Aroma / Stale Aftertaste / Stale Aroma / Sweet Aromatic Aroma / Astringency / Bitterness / Bitterness Aftertaste / Black Licorice Aftertaste / Black Licorice Flavor / Cooling / Overall Aftertaste / Overall Flavor / Sweet Aromatic Aftertaste / Sweet Aromatic Flavor / Sweetness / Sweetness Aftertaste: mean score, 15-point line scale, two replications, room temperature; for Overall Aroma / Stale Aftertaste / Stale Aroma / Sweet Aromatic Aroma: more than 50% of responses zero; for Astringency / Bitterness / Bitterness Aftertaste / Black Licorice Aftertaste / Black Licorice Flavor / Cooling / Overall Aftertaste / Overall Flavor / Sweet Aromatic Aftertaste / Sweet Aromatic Flavor / Sweetness / Sweetness Aftertaste: same superscript letter = not significantly different (95%)
Experimental: The quality of sweetness of the rebaudioside A derivative products 1 (II), 2 (IV), 3 (III), and 4 (V) also was evaluated and compared to that of rebaudioside A, rebaudioside B, rebaudioside F, and sucrose at room temperature. For each attribute, the sweeteners received a score based on a 15-point unstructured line scale. […] A multiple comparison test, Fisher's LSD 5%, aided in the comparative analysis of the scores.

[3] = Sweetness intensity of a water sample of derivative product compared with a water sample of sucrose (Example 4); assay type: in vivo; conditions: for Sweetness Intensity of Derivative Product (as compared to equivalent amount of sucrose): in water, amount of sample by weight: 1 (II) 3.6 %, 2 (IV) 1.1 %, 3 (III) 9.7 %, 4 (V) 6 %
Experimental: The sweetness intensity of the foregoing rebaudioside A derivative products was analyzed by comparing the sweetness intensity of a water sample having a particular amount of sucrose with a second water sample having an identical amount of a rebaudioside A derivative product.

| SMILES | Metallic Aftertaste [2] | Metallic Flavor [2] | Mouth Numbing [2] | Mouthburn [2] | Stale Flavor [2] | Overall Aroma [2] | Stale Aftertaste [2] | Stale Aroma [2] | Sweet Aromatic Aroma [2] | Astringency [2] | Bitterness [2] | Bitterness Aftertaste [2] | Black Licorice Aftertaste [2] | Black Licorice Flavor [2] | Cooling [2] | Overall Aftertaste [2] | Overall Flavor [2] | Sweet Aromatic Aftertaste [2] | Sweet Aromatic Flavor [2] | Sweetness [2] | further results |
| --- | --- | --- | --- | --- | --- | --- | --- | --- | --- | --- | --- | --- | --- | --- | --- | --- | --- | --- | --- | --- | --- |
| CC1=CC23CCC4C(C)(C(=O)O)CCCC4(C)C2CCC1(OC1OC(CO)C(O)C(OC2OC(CO)C(O)C(O)C2O)C1OC1OC(CO)C(O)C(O)C1O)C3 [Derivative Product 4 (V), 13-[(2-O-β-D-glucopyranosyl-3-O-β-D-glucopyranosyl-β-D-glucopyranosyl)oxy]kaur-15-en-18-oic acid] | 0.63 | 0.87 | 0.90 | 1.23 | 0.77 | 0.19 | 0.47 | 0.09 | 0.00 | 3.01^ab | 2.08^cde | 1.38^bcd | 1.25^a | 1.40^bc | 0.70^ab | 5.24^b | 6.44^b | 0.83^ab | 0.75^ab | 6.04^b | taste quality [1]: sweet clean taste similar to sugar; characteristics which were not significantly different from sucrose (number) [2]: 8; Sweetness Aftertaste [2]: 4.85^b; Sweetness Intensity of Derivative Product (as compared to equivalent amount of sucrose) [3]: 120 |
| CC1=CC23CCC4C(C)(C(=O)OC5OC(CO)C(O)C(O)C5O)CCCC4(C)C2CCC1(OC1OC(CO)C(O)C(OC2OC(CO)C(O)C(O)C2O)C1OC1OC(CO)C(O)C(O)C1O)C3 [Derivative Product 2 (IV), 13-[(2-O-β-D-glucopyranosyl-3-O-β-D-glucopyranosyl-β-D-glucopyranosyl)oxy]kaur-15-en-18-oic acid β-D-glucopyranosyl ester] | 0.88 | 0.82 | 0.97 | 1.45 | 1.21 | 0.09 | 0.74 | 0.06 | 0.00 | 2.90^ab | 2.86^ab | 1.82^ab | 0.00^c | 0.07^d | 0.12^c | 2.35^d | 3.58^c | 0.20^cd | 0.19^bc | 1.14^d | characteristics which were not significantly different from sucrose (number) [2]: 8; overall flavor and sweetness relative to sucrose ([2]; in vivo): comparable to sucrose; Sweetness Aftertaste [2]: 0.41^d; Sweetness Intensity of Derivative Product (as compared to equivalent amount of sucrose) [3]: 20 |
| C=C1C[C@@]23CC[C@H]4[C@@](C)(CCC[C@@]4(C)C(=O)OC4OC(CO)C(O)C(O)C4O)[C@@H]2CC[C@]1(OC1OC(CO)C(O)C(OC2OC(CO)C(O)C(O)C2O)C1OC1OC(CO)C(O)C(O)C1O)C3 (some centres unmarked) [Reb. A, Rebaudioside A] | 0.80 | 0.97 | 0.76 | 1.29 | 0.89 | 0.16 | 0.48 | 0.00 | 0.14 | 3.14^ab | 3.43^a | 2.21^a | 1.47^a | 2.31^a | 1.10^a | 6.34^a | 9.88^a | 0.50^bcd | 0.71^ab | 9.59^a | Sweetness Aftertaste [2]: 5.91^a |
| CC1(C(=O)OC2OC(CO)C(O)C(O)C2O)CCCC2(C)C3CCC4(OC5OC(CO)C(O)C(OC6OC(CO)C(O)C(O)C6O)C5OC5OC(CO)C(O)C(O)C5O)CC3(CCC12)CC4(C)O [Derivative Product 1 (II), 13-[(2-O-β-D-glucopyranosyl-3-O-β-D-glucopyranosyl-β-D-glucopyranosyl)oxy]-16-hydroxy kauran-18-oic acid β-D-glucopyranosyl ester] | 0.67 | 0.71 | 0.38 | 1.11 | 1.01 | 0.17 | 0.56 | 0.10 | 0.04 | 2.38^c | 2.28^bcd | 1.32^cd | 0.00^c | 0.00^d | 0.29^bc | 2.18^d | 3.14^c | 0.09^d | 0.06^c | 1.54^d | Sweetness Aftertaste [2]: 0.70^d; Sweetness Intensity of Derivative Product (as compared to equivalent amount of sucrose) [3]: 30; sweetness intensity, times that of sucrose ([3]; water solution vs same weight percentage of sucrose, 3.6 weight percent for 1 (II)): at least 30 times |
